Data set [1] has as its target Cystic fibrosis transmembrane conductance regulator/Golgi-associated PDZ and coiled-coil motif-containing protein (Homo sapiens, UniProt P13569+Q9HD26). Nature of the data set: potency against CAL PDZ-peptide interaction – biochemical, fluorescence polarization, Cerulean-tagged CAL PDZ, cherry-picks, dose response (AID 504773). A general note: In fluorescence polarisation assays a small probe gives low polarisation when free and higher when bound to something large.

Data set [2] concerns Salmon testes DNA. Nature of the data set: acridine orange-DNA binding displacement – biochemical, fluorescence polarization, cherry-picked samples, set 2, artefact control for KSHV LANA DNA-binding inhibitor project, dose response (AID 504727). Further details: species or system Salmonidae.
For data set [3], the target named is ORF 73 (Human herpesvirus 8, UniProt O40947). Nature of the data set: KSHV LANA DNA-binding disruption – biochemical, fluorescence polarization, cherry-picked samples, dose response (AID 504725).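 Note: fluorescence polarization of a labeled DNA duplex reporting LANA DNA binding; potency is for inhibitors that block LANA binding to the DNA.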 Also on record: species or system Human gammaherpesvirus 8.
A short description of data set [4]: rescue of ΔF508 CFTR function, airway epithelium – human bronchial epithelial cells, plate reader, cherry-pick, two tests, dose response (AID 743267). It counts as functional, cell-based.
Data set [5] deals with T1, Eukaryotic translation initiation factor 2-alpha kinase 3 (Homo sapiens, UniProt Q9NZJ5). In words: Dose response cell-based high-throughput screening assay to measure PERK inhibition. [Related pubchem assays: 1416 ]. It counts as functional.
Data set [6] addresses T1, Eukaryotic translation initiation factor 2-alpha kinase 3. In words: Counterscreen assay for PERK inhibitors: Dose response cell-based high throughput screening assay to measure inhibition of PERK at 6 hours. [Related pubchem assays: 1522, 1416 ]. The format is functional. For orientation: A counterscreen serves to expose hits that act by an unwanted route or on another target.

For data set [7], the system named is Streptococcus sp. 'group A'. Nature of the data set: Streptococcus pyogenes SK(-)GAS viability under kanamycin – luminescence, BacTiterGlo, confirmation, counter-screen for streptokinase expression inhibitor project, dose response (AID 1900). It counts as functional, organism-based.
Data set [8] deals with T2, Streptokinase A (Streptococcus pyogenes serotype M1, UniProt P10520).
T2 sequence (P10520 whole entry): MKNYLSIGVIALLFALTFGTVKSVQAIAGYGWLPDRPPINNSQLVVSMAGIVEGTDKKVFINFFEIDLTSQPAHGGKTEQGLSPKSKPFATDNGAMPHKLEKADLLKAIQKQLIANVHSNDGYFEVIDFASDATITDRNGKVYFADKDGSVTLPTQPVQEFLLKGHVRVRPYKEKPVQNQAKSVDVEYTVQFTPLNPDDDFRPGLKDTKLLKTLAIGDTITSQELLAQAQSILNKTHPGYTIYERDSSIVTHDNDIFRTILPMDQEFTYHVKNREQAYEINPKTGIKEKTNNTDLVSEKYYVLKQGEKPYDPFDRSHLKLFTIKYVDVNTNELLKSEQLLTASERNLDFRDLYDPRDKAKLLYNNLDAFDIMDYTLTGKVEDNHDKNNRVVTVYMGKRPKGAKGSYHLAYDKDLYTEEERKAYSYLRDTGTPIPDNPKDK
In words: viability-normalized secreted streptokinase activity reduction – plasminogen activation absorbance, OD405, dose response (AID 1914).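 Note: secreted streptokinase activity via plasminogen activation per viability signal from cell pellet.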 It counts as functional, Streptococcus pyogenes M1 GAS.

In data set [9] the test system is Streptococcus. In words: GAS UMAA2166 growth inhibition – luminescence, BacTiterGlo, counter-screen for streptokinase expression inhibitor project, dose response (AID 1915).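 Note: potency for reduction of bacterial viability or growth.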 The format is functional, organism-based.
The target in data set [10] is X-box-binding protein 1 (Homo sapiens, UniProt P17861). It counts as functional, Cricetulus griseus.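 Note: confirmatory dose-response counter-screen serving a CHOP assay.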
The target of data set [11] is T3, RNA-binding protein pos-1 (Caenorhabditis elegans, UniProt G5EF15).
T3 sequence (G5EF15 whole entry): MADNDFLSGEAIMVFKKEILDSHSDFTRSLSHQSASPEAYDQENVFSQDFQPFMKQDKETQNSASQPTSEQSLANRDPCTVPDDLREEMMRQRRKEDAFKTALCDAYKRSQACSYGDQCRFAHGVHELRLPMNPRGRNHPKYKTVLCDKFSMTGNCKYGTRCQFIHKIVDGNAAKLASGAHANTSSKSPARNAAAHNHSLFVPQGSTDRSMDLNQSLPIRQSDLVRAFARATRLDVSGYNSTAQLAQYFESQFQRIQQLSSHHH
Nature of the data set: disruptors of C. elegans POS-1 RNA interaction – biochemical, fluorescence polarization, dose response (AID 1964).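 Note: purified POS-1 fused to maltose binding protein made in E. coli; potency of compounds blocking POS-1 binding to fluorescent RNA.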

In data set [12] the target is Cytochrome P450 2D6 (Homo sapiens, UniProt P10635). In words: qHTS Assay for Inhibitors and Substrates of Cytochrome P450 2D6. [Related pubchem assays: 410 ]. The format is ADME. The following applies: human; read-out: Potency. In general terms: In qHTS, concentration-response curves come from the screen itself.
Data set [13] concerns the target T4, Zinc finger protein mex-5 (Caenorhabditis elegans, UniProt Q9XUB2).
T4 sequence (Q9XUB2 whole entry): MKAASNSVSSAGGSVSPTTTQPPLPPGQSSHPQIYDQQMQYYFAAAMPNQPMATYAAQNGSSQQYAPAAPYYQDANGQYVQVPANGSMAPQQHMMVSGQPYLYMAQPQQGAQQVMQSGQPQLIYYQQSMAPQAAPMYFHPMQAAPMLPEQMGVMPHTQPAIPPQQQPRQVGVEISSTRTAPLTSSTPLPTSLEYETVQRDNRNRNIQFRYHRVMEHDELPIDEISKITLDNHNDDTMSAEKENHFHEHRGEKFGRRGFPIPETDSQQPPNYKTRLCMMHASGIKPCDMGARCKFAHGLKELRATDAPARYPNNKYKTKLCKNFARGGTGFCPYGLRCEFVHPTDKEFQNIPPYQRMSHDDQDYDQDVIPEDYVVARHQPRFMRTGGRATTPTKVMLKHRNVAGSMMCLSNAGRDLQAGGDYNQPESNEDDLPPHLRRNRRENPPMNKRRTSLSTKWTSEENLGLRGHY
In words: potency of MEX-5 RNA-binding blockers – biochemical, C. elegans, fluorescence polarization, dose response (AID 1960).

The target in data set [14] is Cytochrome P450 2C19 (Homo sapiens, UniProt P33261). In words: Cytochrome panel assay with activity outcomes. Panel member name: p450-cyp2c19 Compounds with AC50 equal or less than 10 uM are considered active. The format is functional.
In data set [15] the test system is Vero. In words: viability of Vero cells under compound – cytotoxicity control for flavivirus capping enzyme inhibitors (AID 588742). The format is functional. The following applies: Chlorocebus sabaeus.
Data set [16] addresses Cytochrome P450 2C9 (Homo sapiens, UniProt P11712). The settings on record: read-out: Potency.

These results are taken from ChEMBL document CHEMBL1201862, “PubChem BioAssay data set” (2004).

Active and inactive are the calls of the source.

T1 sequence (Q9NZJ5 whole entry): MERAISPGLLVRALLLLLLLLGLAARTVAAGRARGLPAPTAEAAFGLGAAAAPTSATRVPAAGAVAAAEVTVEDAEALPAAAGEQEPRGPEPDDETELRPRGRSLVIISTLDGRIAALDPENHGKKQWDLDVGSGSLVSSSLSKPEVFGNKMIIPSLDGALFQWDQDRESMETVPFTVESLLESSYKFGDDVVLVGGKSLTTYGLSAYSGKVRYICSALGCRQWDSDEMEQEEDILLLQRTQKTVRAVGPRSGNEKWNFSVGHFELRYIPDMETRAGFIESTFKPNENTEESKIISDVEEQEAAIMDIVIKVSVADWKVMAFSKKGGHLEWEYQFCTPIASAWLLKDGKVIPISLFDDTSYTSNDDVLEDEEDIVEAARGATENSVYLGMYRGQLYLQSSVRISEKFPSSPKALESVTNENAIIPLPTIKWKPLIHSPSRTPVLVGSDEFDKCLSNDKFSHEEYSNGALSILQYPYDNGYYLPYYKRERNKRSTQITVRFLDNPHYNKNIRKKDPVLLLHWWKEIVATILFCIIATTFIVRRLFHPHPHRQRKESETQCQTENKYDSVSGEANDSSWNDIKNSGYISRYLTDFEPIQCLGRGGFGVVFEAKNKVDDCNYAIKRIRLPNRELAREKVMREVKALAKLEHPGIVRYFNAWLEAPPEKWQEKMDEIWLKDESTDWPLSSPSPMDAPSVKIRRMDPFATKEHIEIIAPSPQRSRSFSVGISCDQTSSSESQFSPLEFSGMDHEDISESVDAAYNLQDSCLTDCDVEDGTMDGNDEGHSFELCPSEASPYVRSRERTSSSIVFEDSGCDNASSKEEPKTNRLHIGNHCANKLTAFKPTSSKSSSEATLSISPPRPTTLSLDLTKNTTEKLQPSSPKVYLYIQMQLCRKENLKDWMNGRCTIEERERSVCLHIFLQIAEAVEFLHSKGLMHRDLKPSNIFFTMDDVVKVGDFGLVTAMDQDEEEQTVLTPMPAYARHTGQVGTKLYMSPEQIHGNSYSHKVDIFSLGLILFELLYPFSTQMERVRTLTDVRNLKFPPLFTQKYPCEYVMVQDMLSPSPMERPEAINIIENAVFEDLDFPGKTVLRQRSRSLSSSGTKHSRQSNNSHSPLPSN
Chain of Cytochrome P450 2C9 (P11712 whole entry): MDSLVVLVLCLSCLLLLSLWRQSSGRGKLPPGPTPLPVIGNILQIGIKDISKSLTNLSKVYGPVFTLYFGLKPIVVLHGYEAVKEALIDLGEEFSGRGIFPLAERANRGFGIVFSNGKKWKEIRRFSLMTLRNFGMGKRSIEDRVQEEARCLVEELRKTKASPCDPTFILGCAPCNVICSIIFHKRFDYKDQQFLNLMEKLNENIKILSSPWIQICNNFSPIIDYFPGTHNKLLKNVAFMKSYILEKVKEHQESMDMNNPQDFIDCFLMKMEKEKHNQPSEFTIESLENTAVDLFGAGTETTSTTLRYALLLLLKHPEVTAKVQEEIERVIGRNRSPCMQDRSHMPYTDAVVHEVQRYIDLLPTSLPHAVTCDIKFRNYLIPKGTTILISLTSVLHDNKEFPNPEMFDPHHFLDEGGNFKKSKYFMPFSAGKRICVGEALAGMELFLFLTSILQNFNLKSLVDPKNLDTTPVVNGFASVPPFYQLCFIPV
Chain of X-box-binding protein 1 (P17861 whole entry): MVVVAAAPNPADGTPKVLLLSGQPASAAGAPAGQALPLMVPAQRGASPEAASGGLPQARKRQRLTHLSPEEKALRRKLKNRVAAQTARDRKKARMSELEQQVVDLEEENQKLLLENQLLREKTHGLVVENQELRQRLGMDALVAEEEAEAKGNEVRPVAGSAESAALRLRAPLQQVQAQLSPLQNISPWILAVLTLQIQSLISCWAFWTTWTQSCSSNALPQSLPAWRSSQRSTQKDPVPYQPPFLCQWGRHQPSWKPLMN
Chain of Cystic fibrosis transmembrane conductance regulator/Golgi-associated PDZ and coiled-coil motif-containing protein (P13569 whole entry, other chains not shown): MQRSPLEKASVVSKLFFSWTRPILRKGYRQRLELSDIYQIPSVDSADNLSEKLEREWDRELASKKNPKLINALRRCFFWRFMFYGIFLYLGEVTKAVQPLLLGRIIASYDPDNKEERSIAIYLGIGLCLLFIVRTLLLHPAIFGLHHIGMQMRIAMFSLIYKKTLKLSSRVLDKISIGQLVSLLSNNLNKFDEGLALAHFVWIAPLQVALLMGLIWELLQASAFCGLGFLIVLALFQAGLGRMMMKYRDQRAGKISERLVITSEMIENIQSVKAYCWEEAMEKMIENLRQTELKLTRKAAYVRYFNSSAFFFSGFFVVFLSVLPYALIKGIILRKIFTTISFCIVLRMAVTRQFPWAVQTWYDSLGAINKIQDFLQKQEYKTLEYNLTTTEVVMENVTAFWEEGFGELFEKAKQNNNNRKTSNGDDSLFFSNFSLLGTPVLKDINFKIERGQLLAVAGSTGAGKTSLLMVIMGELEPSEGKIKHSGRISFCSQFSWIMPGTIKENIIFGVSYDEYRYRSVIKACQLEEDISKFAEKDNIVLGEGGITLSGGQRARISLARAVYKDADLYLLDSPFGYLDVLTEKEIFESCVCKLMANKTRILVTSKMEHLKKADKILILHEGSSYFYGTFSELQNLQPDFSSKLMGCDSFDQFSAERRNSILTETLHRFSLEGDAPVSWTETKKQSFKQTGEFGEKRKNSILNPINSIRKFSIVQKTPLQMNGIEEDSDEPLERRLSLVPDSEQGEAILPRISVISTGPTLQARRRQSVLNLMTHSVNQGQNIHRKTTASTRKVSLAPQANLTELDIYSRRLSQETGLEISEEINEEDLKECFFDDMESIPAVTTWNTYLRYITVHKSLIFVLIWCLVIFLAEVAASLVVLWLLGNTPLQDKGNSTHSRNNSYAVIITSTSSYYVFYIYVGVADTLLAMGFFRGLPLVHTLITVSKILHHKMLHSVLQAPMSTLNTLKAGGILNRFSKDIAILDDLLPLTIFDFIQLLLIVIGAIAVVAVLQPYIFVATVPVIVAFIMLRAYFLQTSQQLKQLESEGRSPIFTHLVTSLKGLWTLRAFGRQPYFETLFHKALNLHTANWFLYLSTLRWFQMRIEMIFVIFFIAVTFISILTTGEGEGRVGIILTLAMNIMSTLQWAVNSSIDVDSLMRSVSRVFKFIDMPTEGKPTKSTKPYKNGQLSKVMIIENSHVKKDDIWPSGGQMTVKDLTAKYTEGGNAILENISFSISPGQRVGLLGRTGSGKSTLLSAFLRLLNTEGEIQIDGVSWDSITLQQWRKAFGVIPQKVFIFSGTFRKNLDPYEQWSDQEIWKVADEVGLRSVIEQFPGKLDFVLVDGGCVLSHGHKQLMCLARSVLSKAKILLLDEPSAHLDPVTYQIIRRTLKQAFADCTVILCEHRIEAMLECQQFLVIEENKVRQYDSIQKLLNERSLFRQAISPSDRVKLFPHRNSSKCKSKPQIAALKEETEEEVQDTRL
Chain of Cytochrome P450 2D6 (P10635 whole entry): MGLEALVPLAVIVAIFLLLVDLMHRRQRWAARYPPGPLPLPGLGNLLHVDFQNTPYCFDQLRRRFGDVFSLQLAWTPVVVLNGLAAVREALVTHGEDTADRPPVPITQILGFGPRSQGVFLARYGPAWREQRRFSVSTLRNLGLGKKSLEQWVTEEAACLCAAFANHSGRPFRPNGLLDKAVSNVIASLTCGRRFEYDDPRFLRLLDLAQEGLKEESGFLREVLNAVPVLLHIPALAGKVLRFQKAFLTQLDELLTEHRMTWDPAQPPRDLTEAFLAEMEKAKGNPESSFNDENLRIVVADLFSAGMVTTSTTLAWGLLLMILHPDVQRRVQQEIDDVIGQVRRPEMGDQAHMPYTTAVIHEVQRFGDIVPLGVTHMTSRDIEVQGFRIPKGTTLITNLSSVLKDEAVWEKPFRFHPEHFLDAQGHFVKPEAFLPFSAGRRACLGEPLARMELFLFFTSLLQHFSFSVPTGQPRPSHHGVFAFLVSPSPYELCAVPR
Chain of ORF 73 (O40947 whole entry): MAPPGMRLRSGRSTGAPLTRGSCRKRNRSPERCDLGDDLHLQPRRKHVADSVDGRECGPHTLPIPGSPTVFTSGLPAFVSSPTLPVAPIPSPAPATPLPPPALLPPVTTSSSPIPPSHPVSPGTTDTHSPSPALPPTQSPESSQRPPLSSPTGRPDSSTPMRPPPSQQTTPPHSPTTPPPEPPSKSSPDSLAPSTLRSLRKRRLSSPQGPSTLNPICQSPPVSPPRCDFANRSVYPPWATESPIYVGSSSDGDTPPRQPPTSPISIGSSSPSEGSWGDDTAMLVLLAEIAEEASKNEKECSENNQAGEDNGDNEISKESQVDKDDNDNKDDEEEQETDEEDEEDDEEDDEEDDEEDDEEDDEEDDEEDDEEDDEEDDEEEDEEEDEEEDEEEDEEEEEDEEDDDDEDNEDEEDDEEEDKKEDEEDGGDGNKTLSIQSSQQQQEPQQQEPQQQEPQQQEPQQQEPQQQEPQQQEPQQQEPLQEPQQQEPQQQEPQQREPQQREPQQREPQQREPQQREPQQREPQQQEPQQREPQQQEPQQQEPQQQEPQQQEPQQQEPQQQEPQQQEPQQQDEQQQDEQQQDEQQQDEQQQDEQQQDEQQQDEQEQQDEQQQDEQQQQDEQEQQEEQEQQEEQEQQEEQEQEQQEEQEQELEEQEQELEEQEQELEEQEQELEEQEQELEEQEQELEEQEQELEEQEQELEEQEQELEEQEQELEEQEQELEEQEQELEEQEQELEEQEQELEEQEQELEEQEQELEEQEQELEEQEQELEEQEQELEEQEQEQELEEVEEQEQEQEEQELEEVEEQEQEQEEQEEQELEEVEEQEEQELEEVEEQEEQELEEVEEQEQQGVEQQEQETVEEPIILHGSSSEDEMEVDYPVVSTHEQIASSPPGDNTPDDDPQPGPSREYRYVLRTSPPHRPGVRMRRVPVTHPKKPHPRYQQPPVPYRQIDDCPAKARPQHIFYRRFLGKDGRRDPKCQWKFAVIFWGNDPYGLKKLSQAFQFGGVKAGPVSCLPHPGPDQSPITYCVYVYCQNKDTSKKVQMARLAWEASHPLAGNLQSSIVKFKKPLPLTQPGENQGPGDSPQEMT

Regarding `c1ccc(C(Nc2cccnc2)c2ccccc2)cc1`, in [1], the AC50 is 33 µM (active).

As for `CN1C(=O)/C(=N\C2CCCCC2)c2c3ccccc3c(O)c3cccc1c23`, the AC50 in data set [2] was 101 µM (active); in data set [3] it was 77.3 µM (active); in data set [4] it was 8.48 µM (active).

Take `Cc1cccc(/C=N/n2c(S)nnc2-c2ccco2)c1`: the EC50 in data set [5] and in [6] was > 55.7 µM (not active) each time.

As to `Cc1cccc(NCC(=O)N/N=C\c2cccc(Oc3ccccc3)c2)c1`, the EC50 in [7], in data set [8] and in data set [9] was > 150 µM (not active) throughout. Also, the “Absolute IC50 (XBP1)” value in data set [10] amounted to 10 µM.

In the case of `C=CC1=C(C)c2cc3[nH]c(cc4nc(cc5[nH]c(cc1n2)c(C)c5CCC(=O)O)C(CCC(=O)O)=C4C)c(C)c3C=C` [PROTOPORPHYRIN], the EC50 (as a rule, the midpoint of the concentration-response curve) in data set [11] is 9.95 µM (active); in data set [13] it was 8.89 µM (active). The AC50 in data set [12] was 25.1 µM (inconclusive); in data set [14], “inconclusive”; in data set [16] it was 6.31 µM (inconclusive). Further, in data set [15], the CC50 – broadly, the concentration that lowers cell viability or growth by half – is 19.7 µM (active).
